The term TGI denotes the concentration giving total growth inhibition. The low end stands for more potent growth arrest, the high end for less potent growth arrest. A word on the GI50: it is the concentration giving 50% growth inhibition.

This passage reports TGI and GI50 results from PubChem BioAssay (NCI).

SMILES strings stand for the structures.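 Following 48 hours of exposure in 96-well plates, responses at five concentrations were used to interpolate endpoints linearly. GI50 = concentration required for 50% inhibition of growth. TGI marks complete inhibition of growth.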 Where only a bound is given, the exact number is not on record here.

Some test systems named below: A498 renal; IGROV1 ovarian; NCI-H226 lung; OVCAR-5 ovarian; OVCAR-8 ovarian; SF-539 CNS; SK-OV-3 ovarian; SN12C renal; U251 CNS.
What all share (test): DTP human tumour cell line panel, 48 h

As for `Oc1cc(C2OCCCO2)cc(O)c1O`, the TGI in the experiment on A498 renal, in the experiment with IGROV1 ovarian, with NCI-H226 lung, in the experiment with OVCAR-5 ovarian, with OVCAR-8 ovarian and in the experiment with SF-539 CNS was greater than 100 µM each time. Moreover, the TGI with SK-OV-3 ovarian, in the experiment with SN12C renal and with U251 CNS was greater than 100 µM each time.
`C1C[OH+]CCNCC[OH+]CC[OH+]CCN1.[Cl-].[Pt+4]`: the GI50 in the experiment on A498 renal, in the experiment on IGROV1 ovarian, in the experiment on NCI-H226 lung, with OVCAR-8 ovarian, in the experiment with SF-539 CNS and in the experiment on SK-OV-3 ovarian was greater than 100 µM each time. Further, the GI50 with SN12C renal and in the experiment with U251 CNS was greater than 100 µM in each case. Besides, the TGI in the experiment with A498 renal, in the experiment with IGROV1 ovarian, in the experiment with NCI-H226 lung, in the experiment on OVCAR-8 ovarian, in the experiment on SF-539 CNS and in the experiment on SK-OV-3 ovarian was greater than 100 µM throughout. Also, the TGI in the experiment on SN12C renal and in the experiment with U251 CNS was greater than 100 µM in each case.
For `CN(C)C(=S)/N=c1\ss/c(=N\C(=S)N(C)C)n1-c1ccc(Cl)c(Cl)c1`, the TGI in the experiment with A498 renal, with IGROV1 ovarian, in the experiment with NCI-H226 lung, in the experiment on OVCAR-5 ovarian, in the experiment on OVCAR-8 ovarian and in the experiment with SF-539 CNS was greater than 100 µM each time. Further, the TGI in the experiment with SK-OV-3 ovarian, in the experiment on SN12C renal and in the experiment on U251 CNS was greater than 100 µM in each case.
In the case of `O=S1OC2(c3ccccc3-c3ccccc32)c2ccccc21` (stereo not drawn), the TGI in the experiment on A498 renal, with IGROV1 ovarian, in the experiment with NCI-H226 lung, in the experiment with OVCAR-5 ovarian, in the experiment with OVCAR-8 ovarian and with SF-539 CNS was greater than 100 µM each time. In addition, the TGI with SK-OV-3 ovarian, with SN12C renal and in the experiment with U251 CNS was greater than 100 µM in each case.
Turning to `COC(=O)/C(C=O)=C/Sc1ccccc1`, the TGI in the experiment on IGROV1 ovarian came to 28.8 µM; with NCI-H226 lung, 44.6 µM; in the experiment on OVCAR-5 ovarian it was 93.8 µM; in the experiment on OVCAR-8 ovarian, 31.8 µM; in the experiment with SF-539 CNS, 33.2 µM; in the experiment on SK-OV-3 ovarian, 88.5 µM. Also, the TGI came out at 42.9 µM in the experiment with SN12C renal and 42.2 µM in the experiment on U251 CNS.
As to `CC(=O)c1sc(-c2nc(C)c(C(=O)/C=C\c3ccc(/C=C\C(=O)c4sc(-c5nc(C)c(C(C)=O)s5)nc4C)cc3)s2)nc1C`, the TGI with IGROV1 ovarian, in the experiment with NCI-H226 lung, with OVCAR-5 ovarian, in the experiment on OVCAR-8 ovarian, in the experiment on SF-539 CNS and in the experiment on SK-OV-3 ovarian was greater than 100 µM throughout. The TGI with SN12C renal and in the experiment with U251 CNS was greater than 100 µM in each case.
Take `COC(=O)CCC(=O)CC1CC(=O)C2CCCN12` (stereo not drawn): the TGI in the experiment on A498 renal, in the experiment with IGROV1 ovarian, with NCI-H226 lung, in the experiment with OVCAR-5 ovarian, in the experiment on OVCAR-8 ovarian and in the experiment on SF-539 CNS was greater than 100 µM in each case. Further, the TGI in the experiment with SK-OV-3 ovarian, with SN12C renal and with U251 CNS was greater than 100 µM throughout.
As for `COC(=O)/C(C)=C/[N+](=O)[O-]`, the TGI with A498 renal was 43.3 µM; in the experiment with IGROV1 ovarian it was 44.1 µM; with OVCAR-5 ovarian, 35.4 µM; in the experiment on OVCAR-8 ovarian, 63.3 µM; in the experiment with SF-539 CNS it was 33.2 µM; with SK-OV-3 ovarian, 33.4 µM. Moreover, the TGI with SN12C renal was 41 µM; with U251 CNS, 32.5 µM.
For `O=c1[nH]c2cc(Cl)ccc2nc1/C(=N\O)C(O)c1ccc(Cl)cc1Cl` (stereo not drawn), the TGI in the experiment with IGROV1 ovarian, in the experiment with NCI-H226 lung, in the experiment on OVCAR-5 ovarian, in the experiment with OVCAR-8 ovarian, with SF-539 CNS and in the experiment with SK-OV-3 ovarian was greater than 100 µM each time. Further, the TGI in the experiment on SN12C renal and with U251 CNS was greater than 100 µM in each case.
For the compound `Nc1nc(CCl)nc(Nc2ccccc2)n1`, the TGI was 36.1 µM in the experiment with IGROV1 ovarian; 43.3 µM with NCI-H226 lung; 43.4 µM in the experiment on OVCAR-5 ovarian; greater than 100 µM with OVCAR-8 ovarian; 70.7 µM in the experiment on SF-539 CNS; 15.6 µM in the experiment with U251 CNS.
For `COC(=O)/C(C#N)=C1\CCC(O)N1` (stereo not drawn), the concentration for total growth inhibition (TGI) with IGROV1 ovarian, in the experiment with NCI-H226 lung, with OVCAR-5 ovarian, with OVCAR-8 ovarian, in the experiment with SF-539 CNS and in the experiment with SK-OV-3 ovarian was greater than 100 µM each time. In addition, the TGI in the experiment with SN12C renal and in the experiment with U251 CNS was greater than 100 µM each time.
Regarding `CC1=NN(C(=O)CC(=O)N(C(=O)c2ccccc2Cl)c2ccc(C)cc2)C(=O)C1N=Nc1ccc([N+](=O)[O-])cc1` (stereo not drawn), the TGI in the experiment with A498 renal was greater than 100 µM; in the experiment on IGROV1 ovarian, greater than 100 µM; in the experiment on NCI-H226 lung, greater than 100 µM; with OVCAR-5 ovarian it was greater than 100 µM; in the experiment with OVCAR-8 ovarian it was 78.1 µM; in the experiment on SF-539 CNS, 51.4 µM. Further, the TGI was 69.6 µM with SK-OV-3 ovarian, greater than 100 µM in the experiment on SN12C renal and 48.9 µM in the experiment on U251 CNS.
On to `COc1cccc(-n2c3nc(=O)n(C)c(=O)c-3nc3ccccc32)c1`, for which the TGI is greater than 100 µM in the experiment on A498 renal; 59.6 µM in the experiment on IGROV1 ovarian; 55.6 µM with NCI-H226 lung; 37.2 µM with OVCAR-5 ovarian; 49.6 µM in the experiment with OVCAR-8 ovarian; 27.8 µM in the experiment with SF-539 CNS. Moreover, the TGI in the experiment with SK-OV-3 ovarian was greater than 100 µM; in the experiment on SN12C renal it was 30.8 µM; in the experiment with U251 CNS, 38.2 µM.
For `CN1NC(=Nc2ccccc2)Sc2c1cnn(-c1ccccc1)c2=O`, the concentration for total growth inhibition (TGI) in the experiment on A498 renal, in the experiment on IGROV1 ovarian, in the experiment on OVCAR-8 ovarian, in the experiment on SF-539 CNS, with SK-OV-3 ovarian and in the experiment on SN12C renal was greater than 100 µM throughout. In the experiment with U251 CNS, the TGI was greater than 100 µM.
